Laboratory results from US20250092031A1, “RIPK3 INHIBITORS AND METHODS OF USE” (Momentum Therapeutics, Inc., priority 2023, published 2025).

How the values were obtained:
[1] = test system: Murine L929 cells; assay: Necroptosis inhibition assay in L929 cells (mTNFα + zVAD, Sytox Green); type: cell-based; settings: Mus musculus, 10 ng/ml mTNFα and 20 μM zVAD, 6 hours, Sytox Green fluorescence
Experimental: (§1) Murine L929 cells (ATCC-CCL-1) were seeded at 10,000 cells/well in a 96-well plate. Cells were treated 48 hours after seeding with 10 ng/ml mTNFα (R&D Systems) and 20 μM zVAD (ChemShuttle) in the presence of different concentrations of compounds ranging from […] to 0.01 μM. Cells treated with 0.1% DMSO or cells treated with TNFα+zVAD were used as control and vehicle respectively.
Assay plates containing cells were incubated for 6 hours at 37° C. and 5% CO2. Necroptosis was assessed using Sytox Green Nucleic Acid Stain (Invitrogen). After incubation, 100 μL of Sytox dye at 2 μM (2×) diluted in HBSS 1× was added in each well and incubated for 15 min at room temperature. Fluorescence (500ex/530em) was recorded using the Cytation 5 microplate reader (Biotek).
(§2) Percentage of necroptosis inhibition was calculated as the percent compared to control and vehicle conditions which correspond to 100% and 0% respectively. The half-maximum necroptosis inhibition (IC50) levels were calculated using GraphPad Prism software and are shown in Table 3 (NT represents compound not tested).

[2] = test system: Human HT-29 cells; assay: Necroptosis inhibition assay in HT-29 cells (hTNFα + zVAD + SMAC mimetic, Sytox Green/Hoechst); type: cell-based; settings: 10 ng/ml hTNFα, 20 μM zVAD and 100 nM SMAC mimetic, 6 hours, Sytox/Hoechst positive cells, read-out: HT29 necroptosis inhibition IC50
Experimental: as §1, with “Human HT-29” for “Murine L929”, “(ATCC-HTB-38)” for “(ATCC-CCL-1)”, “hTNFα” for “mTNFα”, “Systems),” for “Systems) and”, “(ChemShuttle) and 100 nM SMAC mimetic (MedChem Express)” for “(ChemShuttle)”, “TNFα+zVAD+SMAC mimetic” for “TNFα+zVAD”
Assay plates containing cells were incubated for 6 hours at 37° C. and 5% CO2. Necroptosis was assessed using Sytox Green Nucleic Acid Stain (Invitrogen) and Hoechst staining. After incubation, 100 μL of Sytox dye at 2 μM (2×) diluted in HBSS 1× was added to each well. At the same time, Hoechst stain is added to a final concentration of 10 μM and incubated for 15 min at room temperature. Images were taken for Sytox and Hoechst using the Cytation 5 microplate reader with DAPI and GFP filter cubes (Biotek). Sytox and Hoechst positive cells were counted with CellProfiler software.
as §2

Structure (SMILES) | IC50 [1] [nM] | IC50 [2] [nM]
O=C(c1ccc(-c2ccc3c(Nc4ccc5scnc5c4)ccnc3c2)c(F)c1)N1CCNCC1 [Compound 250, (4-(4-(benzo[d]thiazol-5-ylamino)quinolin-7-yl)-3-fluorophenyl)(piperazin-1-yl)methanone] | 344 | 2530
O=C(c1ccc(-c2ccc3nccc(Nc4ccc5scnc5c4)c3c2)c(F)c1)N1CC2(CCOCC2)C1 [Compound 251, (4-(4-(benzo[d]thiazol-5-ylamino)quinolin-6-yl)-3-fluorophenyl)(7-oxa-2-azaspiro[3.5]nonan-2-yl)methanone] | 582 | 822
O=C(c1ccc(-c2ccc3c(Nc4ccc5scnc5c4)ccnc3c2)c(F)c1)N1CC2(CCOCC2)C1 [Compound 252, (4-(4-(benzo[d]thiazol-5-ylamino)quinolin-7-yl)-3-fluorophenyl)(7-oxa-2-azaspiro[3.5]nonan-2-yl)methanone] | 260 | 244
c1cc(Nc2ccc3scnc3c2)c2ccc(-c3ccc(C4CCNCC4)cc3)cc2n1 [Compound 253, N-(7-(4-(piperidin-4-yl)phenyl)quinolin-4-yl)benzo[d]thiazol-5-amine] | 271 | 755
O=C1CN(Cc2ccc(-c3ccc4nccc(Nc5ccc6[nH]ncc6c5)c4c3)c(F)c2)CCN1 [Compound 271, 4-(4-(4-(1H-indazol-5-ylamino)quinolin-6-yl)-3-fluorobenzyl)piperazin-2-one] | > 10000 | 
CN1CCN(C(=O)c2ccc(-c3ccc4nccc(Nc5ccc6scnc6c5)c4c3)c(F)c2)CC1=O [Compound 273, 4-(4-(4-(benzo[d]thiazol-5-ylamino)quinolin-6-yl)-3-fluorobenzoyl)-1-methylpiperazin-2-one] | 1100 | 780
CN1CCN(C(=O)c2ccc(-c3ccc4c(Nc5ccc6scnc6c5)ccnc4c3)c(F)c2)CC1=O [Compound 274, 4-(4-(4-(benzo[d]thiazol-5-ylamino)quinolin-7-yl)-3-fluorobenzoyl)-1-methylpiperazin-2-one] | 515 | 1190
O=C1CN(C(=O)c2ccc(-c3ccc4nccc(Nc5ccc6scnc6c5)c4c3)c(F)c2)CCN1 [Compound 275, 4-(4-(4-(benzo[d]thiazol-5-ylamino)quinolin-6-yl)-3-fluorobenzoyl)piperazin-2-one] | 3820 | 689
CC1CN(C(=O)c2ccc(-c3ccc4nccc(Nc5ccc6scnc6c5)c4c3)c(F)c2)CCN1 (stereo not shown) [Compound 286, (4-(4-(benzo[d]thiazol-5-ylamino)quinolin-6-yl)-3-fluorophenyl)(3-methylpiperazin-1-yl)methanone] | 852 | 75.8
O=C1CN(Cc2ccc(-c3ccc4nccc(Nc5ccc6occc6c5)c4c3)c(F)c2)CCN1 [Compound 287, 4-(4-(4-(benzofuran-5-ylamino)quinolin-6-yl)-3-fluorobenzyl)piperazin-2-one] | > 10000 | 
Cn1ncc2cc(Nc3ccnc4ccc(-c5ccc(CN6CCNC(=O)C6)cc5F)cc34)ccc21 [Compound 288, 4-(3-fluoro-4-(4-(1-methyl-1H-indazol-5-ylamino)quinolin-6-yl)benzyl)piperazin-2-one] | > 10000 | 
O=C1CN(Cc2ccc(-c3ccc4nccc(Nc5ccc6oncc6c5)c4c3)c(F)c2)CCN1 [Compound 289, 4-(4-(4-(benzo[d]isoxazol-5-ylamino)quinolin-6-yl)-3-fluorobenzyl)piperazin-2-one] | > 10000 | 
Fc1cc(CN2CCC3(CCNCC3)CC2)ccc1-c1ccc2nccc(Nc3ccc4scnc4c3)c2c1 [Compound 290, N-(6-(4-((3,9-diazaspiro[5.5]undecan-3-yl)methyl)-2-fluorophenyl)quinolin-4-yl)benzo[d]thiazol-5-amine] | < 10000 | < 1000
Fc1cc(CN2CCC3(CCNCC3)CC2)ccc1-c1ccc2c(Nc3ccc4scnc4c3)ccnc2c1 [Compound 291, N-(7-(4-((3,9-diazaspiro[5.5]undecan-3-yl)methyl)-2-fluorophenyl)quinolin-4-yl)benzo[d]thiazol-5-amine] | < 10000 | < 1000
C[C@@H]1CN(C(=O)c2ccc(-c3ccc4nccc(Nc5ccc6scnc6c5)c4c3)c(F)c2)C[C@H](C)N1 [Compound 293, (4-(4-(benzo[d]thiazol-5-ylamino)quinolin-6-yl)-3-fluorophenyl)((3R,5S)-3,5-dimethylpiperazin-1-yl)methanone] | 347 | 32.3
O=C(c1ccc(-c2ccc3nccc(Nc4ccc5scnc5c4)c3c2)nc1)N1CC2(CNC2)C1 [Compound 294, (6-(4-(benzo[d]thiazol-5-ylamino)quinolin-6-yl)pyridin-3-yl)(2,6-diazaspiro[3.3]heptan-2-yl)methanone] | > 10000 | 
Fc1cc(OC2CCNCC2)ccc1-c1ccc2nccc(Nc3ccc4scnc4c3)c2c1 [Compound 295, N-(6-(2-fluoro-4-(piperidin-4-yloxy)phenyl)quinolin-4-yl)benzo[d]thiazol-5-amine] | 781 | 147
Cc1cc(-c2ccc3nccc(Nc4ccc5scnc5c4)c3c2)c(F)cc1C(=O)N1CCNCC1 [Compound 296, (4-(4-(benzo[d]thiazol-5-ylamino)quinolin-6-yl)-5-fluoro-2-methylphenyl)(piperazin-1-yl)methanone] | 1290 | 16.9
Cc1cc(-c2ccc3c(Nc4ccc5scnc5c4)ccnc3c2)c(F)cc1C(=O)N1CCNCC1 [Compound 297, (4-(4-(benzo[d]thiazol-5-ylamino)quinolin-7-yl)-5-fluoro-2-methylphenyl)(piperazin-1-yl)methanone] | 282 | 174
O=C(c1ccc(-c2ccc3nccc(Nc4ccc5scnc5c4)c3c2)c(F)c1)N1CC2CNCC2C1 (stereo not shown) [Compound 298, (4-(4-(benzo[d]thiazol-5-ylamino)quinolin-6-yl)-3-fluorophenyl)(hexahydropyrrolo[3,4-c]pyrrol-2(1H)-yl)methanone] | < 10000 | 
O=C(c1ccc(-c2ccc3c(Nc4ccc5scnc5c4)ccnc3c2)c(F)c1)N1CC2CNCC2C1 (stereo not shown) [Compound 302, (4-(4-(benzo[d]thiazol-5-ylamino)quinolin-7-yl)-3-fluorophenyl)(hexahydropyrrolo[3,4-c]pyrrol-2(1H)-yl)methanone] | < 10000 | 
O=C(c1ccc(-c2ccc3nccc(Nc4ccc5scnc5c4)c3c2)c(F)c1)N1C[C@H]2C[C@@H](C1)N2 [Compound 304, (4-(4-(benzo[d]thiazol-5-ylamino)quinolin-6-yl)-3-fluorophenyl)((1R,5S)-3,6-diazabicyclo[3.1.1]heptan-3-yl)methanone] | < 10000 | 
O=C(c1ccc(-c2ccc3nccc(Nc4ccc5scnc5c4)c3c2)c(F)c1)N1[C@@H]2CNC[C@H]1C2 [Compound 308, (4-(4-(benzo[d]thiazol-5-ylamino)quinolin-6-yl)-3-fluorophenyl)((1R,5S)-3,6-diazabicyclo[3.1.1]heptan-6-yl)methanone] | < 10000 | 
Fc1cc(OC2CCNCC2)ccc1-c1ccc2c(Nc3ccc4scnc4c3)ccnc2c1 [Compound 309, N-(7-(2-fluoro-4-(piperidin-4-yloxy)phenyl)quinolin-4-yl)benzo[d]thiazol-5-amine] | < 10000 | 
O=C(c1ccc(-c2ccc3c(Nc4ccc5scnc5c4)ccnc3c2)c(F)c1)N1CCC2(CCNC2)CC1 [Compound 314, (4-(4-(benzo[d]thiazol-5-ylamino)quinolin-7-yl)-3-fluorophenyl)(2,8-diazaspiro[4.5]decan-8-yl)methanone] | < 10000 | 
Fc1cc(CN2CCNCC2)ccc1-c1ccc2nccc(Nc3ccc4sccc4c3)c2c1 [Compound 385, N-(benzo[b]thiophen-5-yl)-6-(2-fluoro-4-(piperazin-1-ylmethyl)phenyl)quinolin-4-amine] | > 10000 | 
Fc1cc(CN2CCNCC2)ccc1-c1ccc2nccc(Nc3ccc4occc4c3)c2c1 [Compound 386, N-(benzofuran-5-yl)-6-(2-fluoro-4-(piperazin-1-ylmethyl)phenyl)quinolin-4-amine] | > 10000 | 
Fc1cc(CN2CCNCC2)ccc1-c1ccc2nccc(Nc3ccc4[nH]ncc4c3)c2c1 [Compound 387, 6-(2-fluoro-4-(piperazin-1-ylmethyl)phenyl)-N-(1H-indazol-5-yl)quinolin-4-amine] | > 10000 | 
Cn1ncc2cc(Nc3ccnc4ccc(-c5ccc(CN6CCNCC6)cc5F)cc34)ccc21 [Compound 388, 6-(2-fluoro-4-(piperazin-1-ylmethyl)phenyl)-N-(1-methyl-1H-indazol-5-yl)quinolin-4-amine] | > 10000 | 
